Source: ChEMBL document CHEMBL1649169, “Multiresistance in Pasteurella multocida is mediated by coexistence of small plasmids” (2009)
In brackets after ≈: the same amount, converted by molar mass.

Experiments:
Type in all cases: functional
Pasteurella multocida [1] = test: Antibacterial activity against Pasteurella multocida BB1043 harboring plasmid pB1000 bearing blaROB-1 gene and plasmid pB9956 bearing tetH gene by CLSI M31-A3 broth microdilution method
Pasteurella multocida [2] = test: Antibacterial activity against Pasteurella multocida BB1039 harboring plasmid pB1000 bearing blaROB-1 gene and plasmid pB9956 bearing tetH gene by CLSI M31-A3 broth microdilution method
Pasteurella multocida [3] = test: Antibacterial activity against Pasteurella multocida BB1038 harboring plasmid pB1000 bearing blaROB-1 gene and plasmid pB1005 bearing strA, sul2 genes by CLSI M31-A3 broth microdilution method
Pasteurella multocida [4] = test: Antibacterial activity against Pasteurella multocida BB1042 harboring plasmid pB1000 bearing blaROB-1 gene and plasmid pB9956 bearing tetH gene by CLSI M31-A3 broth microdilution method
Pasteurella multocida [5] = test: Antibacterial activity against Pasteurella multocida BB1035 harboring plasmid pB1000 bearing blaROB-1 gene and plasmid pB1005 bearing strA, sul2 genes by CLSI M31-A3 broth microdilution method
Pasteurella multocida [6] = test: Antibacterial activity against Pasteurella multocida BB1036 harboring plasmid pB1000 bearing blaROB-1 gene and plasmid pB1005 bearing strA, sul2 genes by CLSI M31-A3 broth microdilution method
Pasteurella multocida [7] = test: Antibacterial activity against Pasteurella multocida BB1034 harboring plasmid pB1000 bearing blaROB-1 gene and plasmid pB1001 bearing tetB gene by CLSI M31-A3 broth microdilution method
Pasteurella multocida [8] = test: Antibacterial activity against Pasteurella multocida ATCC 43137 by CLSI M31-A3 broth microdilution method
Pasteurella multocida [9] = test: Antibacterial activity against Pasteurella multocida BB1045 harboring plasmid pB1000 bearing blaROB-1 gene and plasmid pB9956 bearing tetH gene by CLSI M31-A3 broth microdilution method
Pasteurella multocida [10] = test: Antibacterial activity against Pasteurella multocida BB1041 harboring plasmid pB1000 bearing blaROB-1 gene and plasmid pB9956 bearing tetH gene by CLSI M31-A3 broth microdilution method
Pasteurella multocida [11] = test: Antibacterial activity against Pasteurella multocida BB1046 harboring plasmid pB1003 bearing blaROB-1 gene and plasmid pB1002 bearing strA, sul2 genes by CLSI M31-A3 broth microdilution method
Pasteurella multocida [12] = test: Antibacterial activity against Pasteurella multocida BB1037 harboring plasmid pB1000 bearing blaROB-1 gene and plasmid pB1005 bearing strA, sul2 genes by CLSI M31-A3 broth microdilution method
Pasteurella multocida [13] = test: Antibacterial activity against Pasteurella multocida BB1040 harboring plasmid pB1000 bearing blaROB-1 gene and plasmid pB9956 bearing tetH gene by CLSI M31-A3 broth microdilution method
Pasteurella multocida [14] = test: Antibacterial activity against Pasteurella multocida BB1044 harboring plasmid pB1000 bearing blaROB-1 gene, plasmid 1006 bearing tetO gene and plasmid pB1005 bearing strA, sul2 genes by CLSI M31-A3 broth microdilution method

Compound	MIC (Pasteurella multocida [1])	MIC (Pasteurella multocida [2])	MIC (Pasteurella multocida [3])	MIC (Pasteurella multocida [4])	MIC (Pasteurella multocida [5])	MIC (Pasteurella multocida [6])	MIC (Pasteurella multocida [7])	MIC (Pasteurella multocida [8])	MIC (Pasteurella multocida [9])	MIC (Pasteurella multocida [10])	MIC (Pasteurella multocida [11])	MIC (Pasteurella multocida [12])	MIC (Pasteurella multocida [13])	MIC (Pasteurella multocida [14])
CC1(C)S[C@@H]2[C@H](NC(=O)Cc3ccccc3)C(=O)N2[C@H]1C(=O)O [PENICILLIN G]	> 16 µg/mL	> 16 µg/mL	> 16 µg/mL	> 16 µg/mL	> 16 µg/mL	> 16 µg/mL	> 16 µg/mL	≤ 0.03 µg/mL	> 16 µg/mL	> 16 µg/mL	> 16 µg/mL	> 16 µg/mL	> 16 µg/mL	> 16 µg/mL
CN(C)[C@@H]1C(O)=C(C(N)=O)C(=O)[C@@]2(O)C(O)=C3C(=O)c4c(O)cccc4[C@@](C)(O)[C@H]3C[C@@H]12 [TETRACYCLINE]	32 µg/mL (≈ 72 µM)	32 µg/mL (≈ 72 µM)	2 µg/mL (≈ 4.5 µM)	32 µg/mL (≈ 72 µM)	2 µg/mL (≈ 4.5 µM)	2 µg/mL (≈ 4.5 µM)	16 µg/mL (≈ 36 µM)	2 µg/mL (≈ 4.5 µM)	32 µg/mL (≈ 72 µM)	32 µg/mL (≈ 72 µM)	1 µg/mL (≈ 2.25 µM)	2 µg/mL (≈ 4.5 µM)	32 µg/mL (≈ 72 µM)	32 µg/mL (≈ 72 µM)
CO/N=C(\C(=O)N[C@@H]1C(=O)N2C(C(=O)O)=C(COC(C)=O)CS[C@H]12)c1csc(N)n1 [CEFOTAXIME]	1 µg/mL (≈ 2.2 µM)	1 µg/mL (≈ 2.2 µM)	1 µg/mL (≈ 2.2 µM)	1 µg/mL (≈ 2.2 µM)	0.5 µg/mL (≈ 1.1 µM)	1 µg/mL (≈ 2.2 µM)	1 µg/mL (≈ 2.2 µM)	≤ 0.06 µg/mL	1 µg/mL (≈ 2.2 µM)	1 µg/mL (≈ 2.2 µM)	0.5 µg/mL (≈ 1.1 µM)	1 µg/mL (≈ 2.2 µM)	1 µg/mL (≈ 2.2 µM)	1 µg/mL (≈ 2.2 µM)
CN[C@@H]1[C@H](O[C@H]2[C@H](O[C@H]3[C@H](O)[C@@H](O)[C@H](N=C(N)N)[C@@H](O)[C@@H]3N=C(N)N)O[C@@H](C)[C@]2(O)C=O)O[C@@H](CO)[C@H](O)[C@H]1O [STREPTOMYCIN]	8 µg/mL (≈ 13.8 µM)	8 µg/mL (≈ 13.8 µM)	> 256 µg/mL	8 µg/mL (≈ 13.8 µM)	> 256 µg/mL	> 256 µg/mL	32 µg/mL (≈ 55 µM)	8 µg/mL (≈ 13.8 µM)	16 µg/mL (≈ 27.5 µM)	16 µg/mL (≈ 27.5 µM)	> 256 µg/mL	> 256 µg/mL	16 µg/mL (≈ 27.5 µM)	> 256 µg/mL
N[C@@H](C(=O)N[C@@H]1C(=O)N2C(C(=O)O)=C(Cl)CS[C@H]12)c1ccccc1 [CEFACLOR ANHYDROUS]	> 16 µg/mL	> 16 µg/mL	> 16 µg/mL	> 16 µg/mL	> 16 µg/mL	> 16 µg/mL	> 16 µg/mL	≤ 1 µg/mL	> 16 µg/mL	> 16 µg/mL	> 16 µg/mL	> 16 µg/mL	> 16 µg/mL	> 16 µg/mL
Cc1cc(NS(=O)(=O)c2ccc(N)cc2)no1 [SULFAMETHOXAZOLE]	> 256 µg/mL	> 256 µg/mL	> 256 µg/mL	> 256 µg/mL	> 256 µg/mL	> 256 µg/mL	> 256 µg/mL	> 256 µg/mL	> 256 µg/mL	> 256 µg/mL	> 256 µg/mL	> 256 µg/mL	> 256 µg/mL	> 256 µg/mL
CC1(C)S[C@@H]2[C@H](NC(=O)[C@H](N)c3ccc(O)cc3)C(=O)N2[C@H]1C(=O)O [AMOXICILLIN]	> 256 µg/mL	> 256 µg/mL	> 256 µg/mL	> 256 µg/mL	> 256 µg/mL	> 256 µg/mL	> 256 µg/mL	≤ 1 µg/mL	> 256 µg/mL	> 256 µg/mL	> 256 µg/mL	> 256 µg/mL	> 256 µg/mL	> 256 µg/mL
